Results on 2 compounds are retold here after patent US20260297060A1, “COMPOUNDS FOR THE DEGRADATION OF MUTANT BRAF” (C4 THERAPEUTICS, INC., priority 2023, published 2026).

SMILES strings stand for the structures.

Data set [1] can be described thus: Example 9 pharmacokinetics assay for the PK and PD study Part I, II and III (plasma, tumor, liver). The data set is classed as in vivo, BALB/c nude mice. Conditions: mouse, po, 100 mg/kg, p.o., single dose, ± SEM. The procedure: For the PK and PD study Part I, agents were administered to BALB/c nude mice bearing A375 human melanoma xenografts tumors. Dabrafenib, Compound 218 and Compound 157 were dosed via p.o. once on day 1. Dabrafenib was dosed at 100 mg/kg. Compound 218 and Compound 157 were dosed at 10 mg/kg.
For the PK and PD study Part II, agents were administered to BALB/c nude mice bearing A375 human melanoma xenografts tumors. Compound 133, Compound 144 and Compound 198 were dosed at 10 mg/kg via p.o. once on day 1.
For the PK and PD study Part III, agent was administered to BALB/c nude mice bearing A375 human melanoma xenografts tumors. Compound 204 were dosed at 10 mg/kg via p.o. once on day 1.
(§1) The plasma samples were collected at predetermined time points for PK analysis. The mice were euthanized at predetermined time points post the treatment. The blood samples were collected into the 1.5 mL Eppendorf tubes containing 15 μL of 0.5 M EDTA-K2. And then the anticoagulant blood samples were centrifuged at 2,500 g at 4° C. for 15 minutes. The plasma samples were separated into 2 aliquots. The 1st was used for PK analysis, and the 2nd served as backup. The samples were stored at −80° C. before bioanalysis.
(§2) The tumor samples were collected at predetermined time points for PK and WB analysis. The tumor was dissected out and split into 3 parts. The 1st part was used for PK analysis, the 2nd part was used for WB analysis and the last one served as backup for study. The samples were transferred into pre-labeled tubes and quickly froze in liquid nitrogen within 2 minutes after dissection. The samples were stored at −80° C. before bioanalysis.
(§3) Liver samples were collected at predetermined time points for PK analysis. The left lobe of the liver was dissected out and split into 2 parts. The 1st part was used for PK analysis and the 2nd part served as the backup for the study. The samples were transferred into pre-labeled tubes and quickly froze in liquid nitrogen within 2 minutes after dissection. The samples were stored at −80° C. before bioanalysis.
The harvested plasma, tumor and liver samples were processed for pharmacokinetics analysis by LC-MS/MS with a concentration range of 5.00-10,000 ng/mL for Compound 218, Compound 157 and Compound 133 in plasma, 0.500-1,000 ng/ml for Compound 218 in liver and tumor homogenate, 0.200-400 ng/mL for Compound 157, Dabrafenib and Compound 133 in liver and tumor homogenate, 0.500-1000 ng/mL for Dabrafenib and Compound 204 in plasma, 0.200-200 ng/mL for Compound 204 in liver and tumor homogenate, 20.0-20,000 ng/mL for Compound 144 and Compound 198 in plasma, 1.00-1,000 ng/mL for Compound 144 and Compound 198 in liver and tumor homogenate.

Data set [2] is described as follows: Example 8 pharmacokinetics assay for PKPD study (plasma, tumor, liver). The data set is classed as in vivo, BALB/c nude mice. Conditions: mouse, po, 35 mg/kg, p.o., single dose. The procedure:
For the PK and PD study, agents were administered to BALB/c nude mice bearing A375 human melanoma xenografts tumors. encorafenib, Compound 8, Compound 26, Compound 38, and Compound 39 were dosed p.o. once on day 1. Encorafenib was dosed at 35 mg/kg, Compound 8, Compound 26, Compound 38, and Compound 39 were dosed at 10 mg/kg. This study was non-GLP.
as §1, with “analysis. For non-termination plasma collection, blood samples were collected into the 1.5 mL Eppendorf tubes containing 3 μL of 0.5 M EDTA-K2. For termination plasma collection, the” for “analysis. The”, “the treatment and the” for “the treatment. The”
as §2, §3
The harvested plasma and liver samples were processed for pharmacokinetics analysis by LC-MS/MS with a concentration range of 0.200~200 ng/mL for encorafenib in plasma and liver homogenate, and 0.100-100 ng/ml in tumor homogenate, 1.00-1000 ng/mL for Compound 8 in plasma and 0.500~500 ng/ml in tumor and liver homogenate, 50.0~50,000 ng/mL for Compound 26 and Compound 38 in plasma, 5.0~5000 ng/ml in liver and 2.00~2000 ng/ml in tumor homogenate, 1.00-1000 ng/mL for Compound 39 in plasma and 0.500~500 ng/mL in liver and tumor homogenate.

Setting [3] is: liver, read-out: Mean Concentration in Liver.
Setting [4] is: plasma, read-out: Mean Concentration in Plasma.
[5] abbreviates: tumor, read-out: Mean Concentration in Tumor.
Where [6] appears, read: liver, read-out: Concentration in Liver (mean ± SEM).
Where [7] appears, read: plasma, read-out: Concentration in Plasma (mean ± SEM).
The mark [8] stands for this setting: tumor, read-out: Concentration in Tumor (mean ± SEM).

`CC(C)(C)c1nc(-c2cccc(NS(=O)(=O)c3c(F)cccc3F)c2F)c(-c2ccnc(N)n2)s1` [Dabrafenib, dabrafenib, reference compound]: in data set [1] (setting [3]), the concentration at 6 h was 1010 ± 111 ng/g and the concentration at 12 h came to 277 ± 125 ng/g. Also, in data set [1] (setting [4]), the concentration at 1 h turned out to be 5.92 ± 2.38 µg/mL, the concentration at 6 h was found to be 0.259 ± 0.0454 µg/mL, the concentration at 12 h amounted to 0.0887 ± 0.0427 µg/mL and the concentration at 24 h came out at 0.00109 ± 0.000467 µg/mL. Further, in data set [1] (setting [5]), the concentration at 1 h was determined as 4920 ± 1490 ng/g, the concentration at 6 h was determined as 237 ± 4.91 ng/g, the concentration at 12 h is 54 ± 13.5 ng/g and the concentration at 24 h was determined as 1.87 ± 0.9 ng/g.

With `COC(=O)N[C@@H](C)CNc1nccc(-c2cn(C(C)C)nc2-c2cc(Cl)cc(NS(C)(=O)=O)c2F)n1` [Encorafenib, encorafenib, reference compound], the concentration at 6 h in data set [2] (setting [6]) came to 362 ± 231 ng/g; in data set [2] (setting [7]) it was 0.585 ± 0.446 µg/mL; in data set [2] (setting [8]), 139 ± 76.2 ng/g. For the same compound, the concentration at 12 h in data set [2] (setting [6]) stood at 16 ± 5.3 ng/g; in data set [2] (setting [7]), 0.0113 ± 0.0085 µg/mL; in data set [2] (setting [8]), 16.1 ± 10.9 ng/g. Besides, the values for the concentration at 1 h in data set [2] (setting [7]) and in data set [2] (setting [8]) were 5.51 ± 1.7 µg/mL and 1350 ± 391 ng/g, respectively. Also, the concentration at 24 h in data set [2] (plasma, 24 h, read-out: Concentration in Plasma (mean ± SEM)) came out at 0.000368 ± 8.2e-05 µg/mL.
